In one experiment the test system is NB4 cells. The experiment in a line: Cell cycling, flow cytometry of intracellular DNA content. In kind it is cell-based, human. The settings on record: synchronized populations, controls 22 hours. As to the method:
There is no G1 block. This effect is due to a lengthening of the duration of the cell cycle. […] The data were acquired using flow cytometry analysis of the individual intracellular DNA content of cells from synchronized populations. Sampling was done every 5 hours over a period of 48 hours.

The next experiment deals with Balb/c/MK keratinocytes. Nature of the experiment: Expression of cytokeratins in keratinocytes. In kind it is cell-based, mouse. The settings on record: Ca^++ 1.8 mM, Retinoic Acid 3 μM, β-Car^OX 30 μM; for IA, intensity of expression per cell, Cytokeratins 1 and 10: control 4.4; for IA, intensity of expression per cell, panel (CAMON) of Cytokeratins: control 60.7; for A, percentage of immunopositive cells expressing Cytokeratins 1 and 10: control 90.3; for A, percentage of immunopositive cells expressing a panel (CAMON) of Cytokeratins: control 93.7. From the text:
Qualitative data were provided in the first phase of research for the differentiation-inducing effect of β-Car^OX upon the mouse Balb/c/MK keratinocyte cell line.
Cytokeratins 1 and 10 are high molecular weight proteins which are increasingly expressed with the progression of the differentiation program. […] Cells cultured in low calcium media remain proliferative. […] The apparently smaller effect of β-Car^OX compared to retinoic acid is due not to lower potency but to a delayed action and similar results are obtained using a panel of other cytokeratins (Cytokeratin coctail from CAMON containing cytokeratins 1–8, 10, 13, 14, 15, 16, 19).

A further experiment relates to NB4 cell line. The experiment in a line: Expression of differentiation markers CD33, CD11b, CD15 at five days. It is filed as cell-based, human. The settings on record: combined treatments 1 μM RA and 7.5 μM β-Car^OX or fraction. The procedure: The cell differentiation-inducing effects of the fractions were determined qualitatively by observation of morphological changes in cell lines and quantitatively by measuring the expression of characteristic protein markers using monoclonal antibodies and flow cytometry. […] Many differentiation markers are expressed transiently during the differentiation program. In the NB4 cell line, protein CD33 is associated with early stages of differentiation, followed by protein CD11b, an intermediate marker, and eventually by protein CD15, an advanced differentiation marker. Enhanced differentiation therefore will be characterized by a decrease in the expression and intensity of the CD33 marker and an increase in expression and intensity of the CD15 marker.

The next experiment relates to IMR32 cell line. Nature of the experiment: Expression of NF and GFAP markers. It is filed as cell-based, human. The settings on record: β-Car^OX 0 μM. From the text: Expression of glial fibrillary acidic protein, GFAP, is a useful marker indicating differentiation towards glial cells.
For experiment [1], the system named is IMR32. The experiment in a line: Differentiating properties of combinations of β-Car^OX and retinoic acid. It is filed as cell-based, human. The settings on record: Retinoic Acid L 1–2.5 μM alone. From the text:
(§1) Given the cell differentiation-inducing properties of β-Car^OX and some of its fractions, it is instructive not only to compare the effects obtained with those of the better known all-trans retinoic acid, which is recognized as being able to regulate differentiation capacities of several mammalian cell types, but to determine also the effect upon cells when β-Car^OX and retinoic acid are used together. Table 4 presents qualitative data illustrating the results obtained with various combinations of β-Car^OX and retinoic acid in both the NB4 and IMR32 cell lines.
(§2) When an equipotent concentration of β-Car^OX is combined with retinoic acid, their differentiation-inducing effects cancel out. However, when the concentration of either one of them is increased relative to the other, differentiation-induction is restored.

The test system of experiment [2] is NB4. The description is as above. It is filed as cell-based, human. The settings on record: Retinoic Acid L 0.1–1 μM alone.
Text: as §1, §2

In a further experiment the test system is K562. Nature of the experiment: Cytostatic effect (Hoechst 33258 DNA fluorescence, 3 days). In kind it is cell-based, human. Set-up: key: +: activity higher; 0: similar to; −: less than the activity of β-Car^OX. Particulars: ranked relative to β-Car^OX across six concentrations 2.5-22.5 μM. As to the method: (§3) Fractions were tested for cytostatic properties and ability to induce differentiation. The results were compared with those obtained for β-Car^OX, which served as a reference indicating whether or not fractionation was leading to fractions with enhanced activity. Retinoic acid and/or β-carotene were used as controls in some of the cell lines tested in order to differentiate their effects from that of β-Car^OX. All of the samples were tested in identical ‘by weight’ concentrations. Comparisons have been done on a pseudo molarity scale by dividing the weight of sample used by the molecular weight of β-carotene (537 Da). Fractions were tested in human colon carcinoma (HCT116), human neuroblastoma (IMR32), human acute promyelocytic leukemia (NB4), human chronic myelogenous leukemia (K562), and mouse keratinocytes (Balb/c/MK).
(§4) Fractions have been ranked relative to β-Car^OX by dividing each growth inhibition value at each sample concentration by the corresponding β-Car^OX value and determining qualitatively by inspection the trends across the six sample concentrations. Activities of fractions are expressed as “+”, “0”, and “−”, indicating activity higher, similar to, and less than the activity of β-Car^OX, respectively.

A further experiment concerns HCT116. Described as above. The settings on record: ranked relative to β-Car^OX across six concentrations 2.5-45 μM. The arrangement: key: +: activity higher; 0: similar to; −: less than the activity of β-Car^OX. In kind it is cell-based, human. The procedure: as §3, §4
Experiment [3] concerns IMR32. The experiment is described as above. Particulars: ranked relative to β-Car^OX across six concentrations 2.5-45 μM. It is filed as cell-based, human. Set-up: key: +: activity higher; 0: similar to; −: less than the activity of β-Car^OX. As to the method:
as §3, §4

In experiment [4] the test system is NB4. The experiment is described as above. The arrangement: key: +: activity higher; 0: similar to; −: less than the activity of β-Car^OX. It is filed as cell-based, human. Particulars: ranked relative to β-Car^OX across six concentrations 2.5-22.5 μM. The procedure:
as §3, §4

A further experiment has as its system DA-3 cell line. Nature of the experiment: Viability (MTT test), melphalan with β-Car^OX. In kind it is cell-based. Particulars: Mus musculus. From the text: The benefit of the cellular GSH-lowering effect is illustrated by what happens to the viability of DA-3 cells, using the MTT test, treated with both β-Car^OX and melphalan, a classical anticancer agent.
A general note: Formazan colour is commonly taken as a measure of viable cells.

As a reminder, the IC50 is the concentration at which inhibition is half-maximal.

Take `CC1=C(/C=C/C(C)=C/C=C/C(C)=C/C(=O)O)C(C)(C)CCC1` [All trans Retinoic Acid]: the “duration of the cell cycle” value in the experiment with NB4 cells came out at 18 h. In addition, in the experiment with Balb/c/MK keratinocytes, the “IA, intensity of expression per cell, Cytokeratins 1 and 10” value was 15.4 arbitrary units; the “IA, intensity of expression per cell, panel (CAMON) of Cytokeratins” value is listed as 129.8 arbitrary units; the “A, percentage of immunopositive cells expressing Cytokeratins 1 and 10” value is reported as 94.5; the “A, percentage of immunopositive cells expressing a panel (CAMON) of Cytokeratins” value turned out to be 94.3. Further, in the experiment on NB4 cell line, the “CD11b A, percentage of immunopositive cells” value is reported as 71.9; the “CD11b IA, average intensity of marker expression per cell” value is 2.6 arbitrary units; the “CD15 A, percentage of immunopositive cells” value is 73.1; the “CD15 IA, average intensity of marker expression per cell” value was 73.1 arbitrary units. For the same compound, in the experiment with NB4 cell line, the “CD33 A, percentage of immunopositive cells” value turned out to be 87.1 and the “CD33 IA, average intensity of marker expression per cell” value is recorded as 1.6 arbitrary units. In addition, in the experiment on IMR32 cell line (RA 1.0 μM), the GFAP % stood at 94.4%, the GFAP intensity came out at 18.4, the NF % is 96.4% and the NF intensity amounted to 14.2. In addition, in the experiment with IMR32 cell line (RA 2.5 μM), the GFAP % turned out to be 90.5%, the GFAP intensity is on record as 6.1, the NF % came to 97.2% and the NF intensity came out at 11.9. In the experiment on IMR32 cell line (RA 5.0 μM), the GFAP % turned out to be 87.5%, the GFAP intensity came out at 5.2, the NF % is listed as 95.5% and the NF intensity is listed as 8.4. Moreover, in the experiment on IMR32 cell line (RA 10.0 μM), the GFAP % came to 83.1%, the GFAP intensity is given as 4.0, the NF % was found to be 92.0% and the NF intensity is on record as 7.9. Further, the Differentiation result in the experiment with IMR32 [1] is on record as “yes”. Further, in the experiment on NB4 [2], the Differentiation result was “yes”. Also, the “Cytostatic Effect On Cell Lines, K562” value in the experiment with K562 turned out to be 0. The “Cytostatic Effect On Cell Lines, HCT116” value with HCT116 is “−”. Also, the “Cytostatic Effect On Cell Lines, IMR32” value with IMR32 [3] was “+”. Further, the “Cytostatic Effect On Cell Lines, NB4” value with NB4 [4] turned out to be 0.

Turning to `[Ca+2]` [Ca^++], in the experiment on Balb/c/MK keratinocytes, the “IA, intensity of expression per cell, Cytokeratins 1 and 10” value is listed as 13.8 arbitrary units; the “IA, intensity of expression per cell, panel (CAMON) of Cytokeratins” value amounted to 87.2 arbitrary units; the “A, percentage of immunopositive cells expressing Cytokeratins 1 and 10” value stood at 96.5; the “A, percentage of immunopositive cells expressing a panel (CAMON) of Cytokeratins” value was found to be 97.6.

On to `N[C@@H](Cc1ccc(N(CCCl)CCCl)cc1)C(=O)O` [Melphalan], for which the 50% inhibitory concentration (IC50) in the experiment on DA-3 cell line (DA-3, in presence of β-Car^OX 5 μM) was 40 µM; in the experiment with DA-3 cell line (DA-3, in presence of β-Car^OX 7.5 μM) it was 44 µM; in the experiment with DA-3 cell line (DA-3, in presence of β-Car^OX 10 μM) it was 6.6 µM; in the experiment on DA-3 cell line (DA-3, in presence of β-Car^OX 20 μM) it was 6.8 µM; with DA-3 cell line (DA-3, β-Car^OX 0 μM), 100 µM.

Turning to `CC1=C(/C=C/C(C)=C/C=C/C(C)=C/C=C/C=C(C)/C=C/C=C(C)/C=C/C2=C(C)CCCC2(C)C)C(C)(C)CCC1` [β-Carotene], the “Cytostatic Effect On Cell Lines, K562” value in the experiment with K562 was “−”. Besides, the “Cytostatic Effect On Cell Lines, HCT116” value in the experiment with HCT116 is reported as “−”. Further, the “Cytostatic Effect On Cell Lines, IMR32” value in the experiment with IMR32 [3] was 0. The “Cytostatic Effect On Cell Lines, NB4” value in the experiment on NB4 [4] was “−”.
